# Target: Glycogen synthase kinase-3 beta (Oryctolagus cuniculus)
# Assay: Inhibitory concentration against rabbit glycogen synthase kinase-3 beta using protein phosphatase inhibitor-2 as substrate
row,SMILES,IC50
1,"COc1ccccc1C1=C(c2cn(CCCNS(C)(=O)=O)c3ncccc23)C(=O)NC1=O [N-(3-{3-[4-(2-Methoxy-phenyl)-2,5-dioxo-2,5-dihydro-1H-pyrrol-3-yl]-pyrrolo[2,3-b]pyridin-1-yl}-propyl)-methanesulfonamide]",14 nM
2,COc1ccccc1C1=C(c2cn(CCCNS(N)(=O)=O)c3ncccc23)C(=O)NC1=O [3-(7-Azaindolyl)-4-arylmaleimide analogue],20 nM
3,"CCn1cc(C2=C(c3cn(CCCO)c4ncccc34)C(=O)NC2=O)c2cccnc21 [3-(1-Ethyl-1H-pyrrolo[2,3-b]pyridin-3-yl)-4-[1-(3-hydroxy-propyl)-1H-pyrrolo[2,3-b]pyridin-3-yl]-pyrrole-2,5-dione]",65 nM
4,"COc1ccccc1C1=C(c2cn(CCCNC=O)c3ncccc23)C(=O)NC1=O [N-(3-{3-[4-(2-Methoxy-phenyl)-2,5-dioxo-2,5-dihydro-1H-pyrrol-3-yl]-pyrrolo[2,3-b]pyridin-1-yl}-propyl)-formamide]",8 nM
5,"O=C1NC(=O)C(c2cn(CCCO)c3ncccc23)=C1c1cccc2ccccc12 [3-[1-(3-Hydroxy-propyl)-1H-pyrrolo[2,3-b]pyridin-3-yl]-4-naphthalen-1-yl-pyrrole-2,5-dione]",31 nM

# Second part, the molecule after the results:
row,IC50,SMILES
1,480 nM,"O=C1NC(=O)C(c2cn(CCCO)c3ncccc23)=C1c1ccccn1 [3-[1-(3-Hydroxy-propyl)-1H-pyrrolo[2,3-b]pyridin-3-yl]-4-pyridin-2-yl-pyrrole-2,5-dione]"
2,6 nM,"O=C1NC(=O)C(c2cn(CCCO)c3ncccc23)=C1c1ccc(F)cc1Cl [3-(2-Chloro-4-fluoro-phenyl)-4-[1-(3-hydroxy-propyl)-1H-pyrrolo[2,3-b]pyridin-3-yl]-pyrrole-2,5-dione]"
